These results are taken from US11248246B2, “Beta-glucosidase for producing glucose and laminarioligosaccharide from sea weed” (Korea University Research and Business Foundation, priority 2018, dated 2022).

One data set deals with Bgl1B protein. The data set is described as follows: Effect of metal ions on the activity of the Bgl1B protein. Format: biochemical, Saccharophagus degradans 2-40^T. The conditions noted are these: for influence on enzymatic activity / Relative enzymatic activity (%): 10 mM metal ion, 0.1% (w/v) cellobiose; for Relative enzymatic activity (%): relative to no metal ion.
The next data set relates to Novozyme 188. The data set is described as follows: Enzymatic reaction rate of commercialized enzyme Novozyme 188 for substrates (comparison). The data set is classed as biochemical. The conditions noted are these: pH 6, 40° C. (as for Bgl1B). The protocol:
(§1) To confirm the enzymatic reaction rate of the Bgl1B protein for various substrates, the Bgl1B protein was allowed to react with each substrate at various concentrations of 0.1-0.4% (w/v) at pH 6 and 40° C. Vmax, Km, and kcat, which are parameters related to an enzymatic reaction rate, were determined from the Lineweaver-Burk plot.

For data set [1], the target named is T1, Saccharophagus degradans 2-40^T β-glucosidase Bgl1B, recombinant (6 histidine residues at C-terminus), SEQ ID NO: 1 (nucleotide SEQ ID NO: 2) (Saccharophagus degradans, UniProt Q21KX3).
T1 sequence (Q21KX3 1-444): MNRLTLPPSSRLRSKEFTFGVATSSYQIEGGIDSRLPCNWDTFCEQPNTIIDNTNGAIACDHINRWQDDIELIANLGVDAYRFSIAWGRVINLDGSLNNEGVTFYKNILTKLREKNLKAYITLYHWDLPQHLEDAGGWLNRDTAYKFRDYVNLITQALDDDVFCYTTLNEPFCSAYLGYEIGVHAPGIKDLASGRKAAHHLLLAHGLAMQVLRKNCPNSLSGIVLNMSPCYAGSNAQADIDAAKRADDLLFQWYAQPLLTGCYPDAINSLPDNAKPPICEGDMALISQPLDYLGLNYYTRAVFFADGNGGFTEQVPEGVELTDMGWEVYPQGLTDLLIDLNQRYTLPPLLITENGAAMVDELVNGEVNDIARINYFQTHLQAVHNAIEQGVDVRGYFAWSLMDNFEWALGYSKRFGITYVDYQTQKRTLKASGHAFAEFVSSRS
As to the kind of experiment: Enzymatic reaction rate of Bgl1B for various substrates (Lineweaver-Burk plot). The data set is classed as biochemical. The conditions noted are these: for Vmax / kcat: pH 6, 40° C., substrate 0.1-0.4% (w/v). The protocol:
To obtain the genomic DNA of Saccharophagus degradans 2-40^T (ATCC43961), Saccharophagus degradans 2-40^T was cultured in a minimal medium containing 2.3 g of instant ocean sea salt, 20 mM Tris-HCl, 2 g of glucose, 1 g of yeast extract, and 0.5 g of ammonium chloride per 1 L at 30° C. for 12 hours. The genomic DNA was extracted using a commercial DNA isolation kit (Qiagen, Valencia, Calif., USA). The target gene bgl1B was amplified from the genomic DNA by PCR. […] To purify the protein by affinity chromatography, the nucleotide sequence of a gene encoding 6 histidine residues at the C-terminus was added. The PCR product and a pET21α vector were digested with NdeI and NotI, respectively, and ligated to construct a pET21α-Bgl1B plasmid. The plasmid was transformed into Escherichia coli DH5α.
To overexpress the obtained gene, the gene was transformed into a protein-expressing host, Escherichia coli B121 (DE3). The cells were cultured in a Luria-Bertani (LB) broth containing 50 mg/L of ampicillin at 37° C. until absorbance at 600 nm reached 0.6. To induce protein expression, 0.1 mM IPTG was added and the induction temperature was set at 16° C., and a protein was allowed to be overexpressed in a water-soluble form for 16 hours. After culture, centrifugation was performed to recover the cells, the cells were released using a 20 mM Tris-HCl buffer (pH 7.4), and then disrupted by ultrasonication and centrifuged again to obtain a supernatant. The recombinant protein was purified using a HisTrap column (GE Healthcare, Piscataway, USA). The purified protein was concentrated using an Amicon Ultra Centrifugal filter (30,000 molecular weight cut-off; Millipore, Billerica, Mass., USA), and the concentration of the protein was measured using a bicinchoninic acid (BCA) protein assay kit (Thermo Fisher Scientific, San Hose, Calif., USA).
as §1

Substrate in data set [2]: OC[C@H]1O[C@@H](O[C@H]2[C@H](O)[C@@H](CO)OC(O)[C@@H]2O)[C@H](O)[C@@H](O)[C@@H]1O
The data set is described as follows: purified protein, by the assay type. The following applies: other: pH 6, 40° C., substrate 0.1-0.4% (w/v).

Substrate in data set [3]: OC[C@H]1O[C@@H](O[C@H]2[C@H](O)[C@@H](O)C(O)O[C@@H]2CO)[C@H](O)[C@@H](O)[C@@H]1O
The data set is described as follows: purified protein, by the assay type. The conditions noted are these: other: pH 6, 40° C., substrate 0.1-0.4% (w/v).

Substrate in data set [4]: OC[C@H]1O[C@@H](O[C@H]2[C@H](O)[C@@H](O)C(O)O[C@@H]2CO)[C@H](O)[C@@H](O)[C@H]1O
As to the kind of experiment: purified protein, by the assay type. The following applies: other: pH 6, 40° C., substrate 0.1-0.4% (w/v).

Substrate in data set [5]: OC[C@H]1O[C@@H](OC[C@H]2OC(O)[C@H](O)[C@@H](O)[C@@H]2O)[C@H](O)[C@@H](O)[C@@H]1O
As to the kind of experiment: purified protein, by the assay type. The following applies: other: pH 6, 40° C., substrate 0.1-0.4% (w/v).

Substrate in data set [6]: OC[C@H]1O[C@@H](O[C@H]2[C@H]3OC[C@@H]2OC(O)[C@H]3O)[C@H](O)[C@@H](O)[C@H]1O
As to the kind of experiment: purified protein, by the assay type. The following applies: other: pH 6, 40° C., substrate 0.1-0.4% (w/v).

“Also recorded” adds a separate entry of the source.

With `[Ni+2]` [Ni^2+], in the data set with Bgl1B protein, the “influence on enzymatic activity” value is listed as “does not have a great influence; also recorded: did not have a great influence” and the “Relative enzymatic activity (%)” value was found to be 90.3 ± 2.7%.
As for `[Mn+2]` [Mn^2+], the “Relative enzymatic activity (%)” value in the data set on Bgl1B protein amounted to 52.6 ± 2.1%. In addition, the “inhibits enzymatic activity by” value in the data set with Bgl1B protein (metal ion, summary statement) is recorded as “about 50%”.
By Km is commonly meant the concentration of substrate that gives half-maximal velocity. As a reminder, the kcat is the maximal rate divided by the concentration of active sites. As for `OC[C@H]1O[C@@H](O[C@H]2[C@H](O)[C@@H](O)C(O)O[C@@H]2CO)[C@H](O)[C@@H](O)[C@@H]1O` (some centres unmarked) [Cellobiose, cellobiose], in the data set on Novozyme 188, the Km was 3.4 mM, the Vmax was 3.9 × 10^0 U/mg protein and the kcat is 7.8 × 10^0 s^−1. Further, in data set [1], the Vmax was 1.6 × 10^1 U/mg protein and the kcat was found to be 13 s⁻¹.
For `[Mg+2]` [Mg^2+], in the data set with Bgl1B protein, the “influence on enzymatic activity” value was “does not have a great influence; also recorded: did not have a great influence” and the “Relative enzymatic activity (%)” value amounted to 98.9 ± 2.3%.
Take `[Ca+2]` [Ca^2+]: the “Relative enzymatic activity (%)” value in the data set with Bgl1B protein is given as 82.0 ± 1.5%.
As for `OC[C@H]1O[C@@H](O[C@H]2[C@H](O)[C@@H](CO)OC(O)[C@@H]2O)[C@H](O)[C@@H](O)[C@@H]1O` (some centres unmarked) [Laminaribiose, laminaribiose], in the data set with Novozyme 188, the Michaelis-Menten constant (Km) is 2.5 mM, the Vmax is 4.2 × 10^−1 U/mg protein and the catalytic constant (kcat) worked out at 0.85 s⁻¹. For the same molecule, in data set [1] (Bgl1B compared to Novozyme 188), the “Vmax, fold greater than Novozyme 188” value came to 259 fold; the “catalytic efficiency, fold greater than Novozyme 188” value is reported as 108 fold; the “kcat, fold greater than Novozyme 188” value came out at 108 fold. In data set [1], the Vmax is listed as 1.1 × 10^2 U/mg protein and the kcat is 91 s⁻¹.
Consider `[Cu+2]` [Cu^2+], for which, in the data set on Bgl1B protein, the “Relative enzymatic activity (%)” value was 0.0 ± 0.0%.
As to `OC[C@H]1O[C@@H](O[C@H]2[C@H]3OC[C@@H]2OC(O)[C@H]3O)[C@H](O)[C@@H](O)[C@H]1O` (some centres unmarked) [Agarobiose, agarobiose], in data set [1], the Vmax is reported as 3.1 × 10^−1 U/mg protein and the kcat came out at 0.26 s⁻¹.
Taken in the same sequence, the figures for `OC[C@H]1O[C@@H](O[C@H]2[C@H](O)[C@@H](O)C(O)O[C@@H]2CO)[C@H](O)[C@@H](O)[C@H]1O` (some centres unmarked) [Lactose, lactose] were 1.0 × 10^0 U/mg protein and 0.83 s⁻¹.
As for `[Fe+2]` [Fe^2+], the “Relative enzymatic activity (%)” value in the data set with Bgl1B protein is recorded as 8.2 ± 0.3%.
As for `[Co+2]` [Co^2+], in the data set with Bgl1B protein, the “influence on enzymatic activity” value is on record as “does not have a great influence; also recorded: did not have a great influence” and the “Relative enzymatic activity (%)” value was 95.7 ± 1.6%.
With `OC[C@H]1O[C@@H](OC[C@H]2OC(O)[C@H](O)[C@@H](O)[C@@H]2O)[C@H](O)[C@@H](O)[C@@H]1O` (some centres unmarked) [Gentiobiose, gentiobiose], in data set [1], the Vmax is 1.1 × 10^0 U/mg protein and the kcat came out at 0.88 s⁻¹.

B1: Saccharophagus degradans 2-40^T β-glucosidase Bgl1B, recombinant (6 histidine residues at C-terminus), SEQ ID NO: 1 (nucleotide SEQ ID NO: 2) (Saccharophagus … (protein)
chain: MNRLTLPPSSRLRSKEFTFGVATSSYQIEGGIDSRLPCNWDTFCEQPNTIIDNTNGAIACDHINRWQDDIELIANLGVDAYRFSIAWGRVINLDGSLNNEGVTFYKNILTKLREKNLKAYITLYHWDLPQHLEDAGGWLNRDTAYKFRDYVNLITQALDDDVFCYTTLNEPFCSAYLGYEIGVHAPGIKDLASGRKAAHHLLLAHGLAMQVLRKNCPNSLSGIVLNMSPCYAGSNAQADIDAAKRADDLLFQWYAQPLLTGCYPDAINSLPDNAKPPICEGDMALISQPLDYLGLNYYTRAVFFADGNGGFTEQVPEGVELTDMGWEVYPQGLTDLLIDLNQRYTLPPLLITENGAAMVDELVNGEVNDIARINYFQTHLQAVHNAIEQGVDVRGYFAWSLMDNFEWALGYSKRFGITYVDYQTQKRTLKASGHAFAEFVSSRS
In the case of B1, the Km came out at 0.99 mM in data set [2]; 20 mM in data set [3]; 20 mM in data set [4]; 13 mM in data set [5]; 69 mM in data set [6].
